Test results reported in patent publication US9686982B2, “Treatment of potatoes and root vegetables during storage” (AMVAC CHEMICAL CORPORATION, priority 2013, dated 2017).

Key:
tubers (cv Alturas) = assay: Tuber firmness measured with TA-XT-2 texture analyzer; assay type: in vivo, potato; conditions: 115 ppm; for Tuber firmness (N) Average / Tuber firmness (N) Rep 1 / Tuber firmness (N) Rep 2 / Tuber firmness (N) Rep 3 / Tuber firmness (N) Rep 4: stored at 8° C.; for Tuber firmness (N) Rep 1 / Tuber firmness (N) Rep 2 / Tuber firmness (N) Rep 3 / Tuber firmness (N) Rep 4: mean of 6 tubers
Experimental: The source of tubers for this study was Telford Farms in Paul, Id. The storage unit temperature set point was 48.5° F. (9° C.). The tuber pulp temperatures ranged from 49 to 53.6° F. (9 to 12° C.) depending upon their location in the pile. Untreated tubers (cv Alturas) were selected from storage on Jul. 2, 2013 (prior to SmartBlock® application) to serve as untreated controls. About 200 lbs (91 kg) of these were distributed into 4 coolers with cold packs and transported to the Fed Ex office in Twin Falls, Id. at 1:45 pm where they remained in the air conditioned office until 6:23 pm when they left the facility. Untreated tubers to arrived in Pullman at 11:45 am on July 3.
SmartBlock® was applied at a rate of 4.2 fluid oz ton^−1 (136 mL MT^−1) to tubers remaining in the Telford Farms storage on July 2. Ventilation was suspended for an estimated 12 to 18 hrs. post treatment. A shipment of the treated tubers was packed as described above and delivered to Fed Ex in Twin Falls for shipment on July 3. The shipment arrived in Pullman on July 5 at 11:30 am.
Tubers were sorted into weight categories immediately upon arrival in Pullman, working at room temperature (˜25° C.) and in dim light (0.16-1.34 μE sec^−1 m^−2). Two experimental groups were created from the untreated (control) tubers; those with one or more sprouts ≧0.5 cm and those with no significant (>2 mm) sprouts. Sorting of tubers and their assignment to treatment groups for the various experiments was accomplished within 1.5 hr. and subsequently all tubers were placed in dark, walk-in storage at 8° C. with 85 to 90% RH. Humidity was maintained through the use of a household room humidifier, water on the concrete floor, and damp burlap placed on the empty shelves.
Tubers for firmness measurements were sorted by treatment and blocked for size. Each treatment group (containing at least 24 tubers) was stored in a plastic tote in the walk-in cold room at 8° C. Damp burlap was placed atop the tote so as not to contact the tubers directly. Burlap was re-wetted every two days. At 6, 13, 20, and 27 days after treatment (DAT), six tubers from each rep of each treatment (3-decen-2-one-treated and non-treated not sprouted) were selected and gently rinsed under cold running water to remove surface soil. The tubers were placed in plastic tubs and covered with damp paper towels for transport to the testing facility.
A TA-XT-2 texture analyzer (Stable Microsystems) was used to test tubers for firmness. A section of peel was removed from the midsection on opposite sides of the tuber. An 8-mm probe was lowered into the tuber tissue within this peeled area to a distance of 5 mm at a speed of 1 mm s^−1. Firmness was recorded as the N (m kg s−1) required to achieve the specified penetration. The two readings per tuber were averaged. Analysis of variance was performed on the data set.

[1] = system: dry rot (Fusarium sambucinum); assay: Disease defects in commercial storage in Canada (Storage Bin 3); assay type: in vivo
Experimental: (§1) One group of sprouted, diseased tubers (Storage Bin 3) were treated with 3-decen-2-one (as SmartBlock®) at the rate of 115 ppm using a hot fogging method. Another group of tubers was left untreated as a control.

Potato variety FL 2053 = assay: Sprout control in commercial storage in Canada (Storage Bin 3); assay type: in vivo; conditions: 115 ppm hot fogging, sprouted diseased tubers, FIG. 4
Experimental: as §1

[2] = Dec. 10, 2013, final grading after 115 ppm thermal fog

## CCCCCCC=CC(C)=O [3-decen-2-one]
Tubers (cv Alturas); 6 days after treatment
  % Increase (tuber firmness vs untreated): 4.09%
  Tuber firmness (N) Average: 75.38 N
  Tuber firmness (N) Rep 1: 67.84 N
  Tuber firmness (N) Rep 2: 79.18 N
  Tuber firmness (N) Rep 3: 75.64 N
  Tuber firmness (N) Rep 4: 78.85 N
Tubers (cv Alturas); 13 days after treatment
  % Increase (tuber firmness vs untreated): 2.80%
  Tuber firmness (N) Average: 73.45 N
  Tuber firmness (N) Rep 1: 73.22 N
  Tuber firmness (N) Rep 2: 67.34 N
  Tuber firmness (N) Rep 3: 73.98 N
  Tuber firmness (N) Rep 4: 79.26 N
Tubers (cv Alturas); 20 days after treatment
  % Increase (tuber firmness vs untreated): 3.28%
  Tuber firmness (N) Average: 74.90 N
  Tuber firmness (N) Rep 1: 74.51 N
  Tuber firmness (N) Rep 2: 74.63 N
  Tuber firmness (N) Rep 3: 72.81 N
  Tuber firmness (N) Rep 4: 77.64 N
[1]; 115 ppm hot fogging, sprouted diseased tubers, FIG. 4
  symptoms of dry rot compared to untreated controls: decreased or eliminated symptoms of dry rot
[1]; Dec. 10, 2013, bin unloaded after 115 ppm thermal fog on Nov. 13, 2013 (14.30 before treatment), variety FL 2053
  % Total Defects: 4.23%
[1]; [2]
  moistness of tubers: tubers were not moist and mold
  mold development: development had been arrested.
[1]; Dec. 10, 2013 versus Nov. 13, 2013 before treatment, 115 ppm thermal fog
  Change (of % total defects): -70.4
Potato variety FL 2053
  sprouting compared to untreated controls: reduced/prevented sprouting
